Laboratory results from patent publication US20210347727A1 (BLADE THERAPEUTICS, INC., priority 2017, published 2021).

How the values were obtained:
Human Calpain 1/NS1 = target: T1, Human Calpain 1/NS1 (Homo sapiens, UniProt P07384); assay: Biochemical inhibition of calpain 1, continuous fluorescence (FRET substrate) assay; conditions: mean; read-out: Human Calpain 1/NS1 IC50 (nM)_MEAN
T1 sequence (P07384 1-714): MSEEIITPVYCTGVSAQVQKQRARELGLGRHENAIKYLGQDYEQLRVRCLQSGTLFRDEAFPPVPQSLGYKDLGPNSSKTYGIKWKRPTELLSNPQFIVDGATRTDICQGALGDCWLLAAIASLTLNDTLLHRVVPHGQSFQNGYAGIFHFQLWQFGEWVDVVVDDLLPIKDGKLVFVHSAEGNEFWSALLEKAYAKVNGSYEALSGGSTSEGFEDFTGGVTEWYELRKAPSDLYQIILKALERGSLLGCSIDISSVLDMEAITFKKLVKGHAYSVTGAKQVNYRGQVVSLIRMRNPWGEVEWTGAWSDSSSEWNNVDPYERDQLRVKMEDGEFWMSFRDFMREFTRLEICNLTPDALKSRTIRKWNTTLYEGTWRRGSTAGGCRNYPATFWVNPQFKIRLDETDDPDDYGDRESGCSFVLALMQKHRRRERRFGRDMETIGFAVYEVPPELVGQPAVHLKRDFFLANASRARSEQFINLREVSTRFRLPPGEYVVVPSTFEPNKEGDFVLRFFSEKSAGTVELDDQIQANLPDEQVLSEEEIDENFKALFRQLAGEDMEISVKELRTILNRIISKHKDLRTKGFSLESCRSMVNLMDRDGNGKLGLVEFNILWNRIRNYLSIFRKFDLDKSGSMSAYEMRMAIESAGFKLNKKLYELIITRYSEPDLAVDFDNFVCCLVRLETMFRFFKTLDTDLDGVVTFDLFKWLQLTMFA
T1 sequence (P04632 1-268 partner): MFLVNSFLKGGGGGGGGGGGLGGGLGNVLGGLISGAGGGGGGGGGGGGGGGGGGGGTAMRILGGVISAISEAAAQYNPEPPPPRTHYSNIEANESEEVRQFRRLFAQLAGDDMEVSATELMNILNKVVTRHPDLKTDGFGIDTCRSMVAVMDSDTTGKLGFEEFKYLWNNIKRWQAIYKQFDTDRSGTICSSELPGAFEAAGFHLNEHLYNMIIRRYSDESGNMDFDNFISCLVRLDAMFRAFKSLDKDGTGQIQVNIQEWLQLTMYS
Outline: (§1)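 Calpains preincubated with inhibitor at 25 °C in 50 mM Tris pH 7.5, 100 mM NaCl, 1 mM DTT; reaction started with 5-FAM/QXL520 FRET peptide plus CaCl2 for activation. Fluorescence (ex 490/em 520 nm) followed 10 min; rates from 1–5 min slopes, IC50 by 4-parameter logistic fit.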

Human Calpain 2/NS1 = target: T2, Human Calpain 2/NS1 (Homo sapiens, UniProt P17655); assay: Biochemical inhibition of calpain 2, continuous fluorescence (FRET substrate) assay; conditions: mean; read-out: Human Calpain 2/NS1 1C50 [sic] (nM)_MEAN
T2 sequence (P17655 1-700): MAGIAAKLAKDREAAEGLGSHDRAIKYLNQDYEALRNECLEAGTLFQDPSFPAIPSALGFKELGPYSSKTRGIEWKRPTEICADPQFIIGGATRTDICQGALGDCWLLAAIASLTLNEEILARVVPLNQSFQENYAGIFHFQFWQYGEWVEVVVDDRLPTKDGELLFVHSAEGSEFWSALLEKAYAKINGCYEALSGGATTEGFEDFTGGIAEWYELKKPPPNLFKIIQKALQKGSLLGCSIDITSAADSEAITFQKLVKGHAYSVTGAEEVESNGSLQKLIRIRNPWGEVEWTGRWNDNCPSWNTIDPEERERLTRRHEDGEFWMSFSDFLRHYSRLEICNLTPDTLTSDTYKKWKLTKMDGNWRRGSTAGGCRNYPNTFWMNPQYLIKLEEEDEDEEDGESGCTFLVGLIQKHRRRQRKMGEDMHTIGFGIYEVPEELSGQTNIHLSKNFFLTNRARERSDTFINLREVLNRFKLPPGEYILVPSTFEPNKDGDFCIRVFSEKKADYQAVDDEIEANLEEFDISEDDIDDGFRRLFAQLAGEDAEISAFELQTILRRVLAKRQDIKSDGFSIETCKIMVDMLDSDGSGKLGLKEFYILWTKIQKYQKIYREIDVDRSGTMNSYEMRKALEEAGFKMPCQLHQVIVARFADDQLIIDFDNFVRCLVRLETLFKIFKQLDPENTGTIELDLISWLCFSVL
T2 sequence (P04632 1-268 partner): T1 sequence (P04632 1-268 partner)
Outline: as §1

Human Calpain 9/NS1 = target: T3, Human Calpain 9/NS1 (Homo sapiens, UniProt O14815); assay: Biochemical inhibition of calpain 9, continuous fluorescence (FRET substrate) assay; conditions: mean; read-out: Human Calpain 9/NS1 IC50 (nM)_MEAN
T3 sequence (O14815 1-690): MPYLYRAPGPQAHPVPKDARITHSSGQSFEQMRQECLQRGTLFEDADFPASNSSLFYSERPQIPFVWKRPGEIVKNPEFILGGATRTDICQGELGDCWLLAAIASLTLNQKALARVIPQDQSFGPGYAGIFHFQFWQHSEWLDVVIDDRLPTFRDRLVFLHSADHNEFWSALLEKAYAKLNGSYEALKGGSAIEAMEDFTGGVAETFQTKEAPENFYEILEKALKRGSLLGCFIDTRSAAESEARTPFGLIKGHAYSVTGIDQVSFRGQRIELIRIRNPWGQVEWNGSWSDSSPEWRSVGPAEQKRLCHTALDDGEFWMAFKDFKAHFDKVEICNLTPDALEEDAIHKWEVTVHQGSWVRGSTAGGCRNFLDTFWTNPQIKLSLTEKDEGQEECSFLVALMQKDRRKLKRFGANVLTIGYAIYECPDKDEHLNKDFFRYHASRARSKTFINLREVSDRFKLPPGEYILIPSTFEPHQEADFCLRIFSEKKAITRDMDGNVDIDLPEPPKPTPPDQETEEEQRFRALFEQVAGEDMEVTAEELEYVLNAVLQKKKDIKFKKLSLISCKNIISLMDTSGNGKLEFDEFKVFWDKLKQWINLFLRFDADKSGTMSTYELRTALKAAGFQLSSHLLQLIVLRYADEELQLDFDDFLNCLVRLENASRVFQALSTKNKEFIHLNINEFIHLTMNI
T3 sequence (P04632 1-268 partner): T1 sequence (P04632 1-268 partner)
Outline: as §1

[1] = system: calpain activity in SH-SY5Y cells (Spectrin); assay: SH-SY5Y Spectrin cellular calpain inhibition; type: cell-based
[2] = system: calpain activity in SH-SY5Y cells; assay: SH-SY5Y cellular calpain activity, Suc-LLVY-AMC fluorescence assay; type: cell-based; conditions: Suc-LLVY-AMC substrate
Outline: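 SH-SY5Y cells (1% serum, seeded overnight at 37 C) pre-incubated 30 min with serially diluted compound, then given 100 uM cell-permeable Suc-LLVY-AMC. AMC fluorescence followed continuously on FLIPR; slopes taken as calpain activity, and IC50 from 4-parameter logistic fit of slope versus log concentration.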

| IC50 (Human Calpain 1/NS1) [nM] | IC50 (Human Calpain 2/NS1) [nM] | IC50 (Human Calpain 9/NS1) [nM] | IC50 [1] [µM] | IC50 [2] [µM] | SMILES |
| --- | --- | --- | --- | --- | --- |
| < 3000 | < 3000 | < 3000 | < 10 | < 10 | Cc1ccc(Cl)c(C(=O)N[C@@H](Cc2ccccc2)C(=O)C(N)=O)c1F [Compound 31, (S)—N-(4-AMINO-3,4-DIOXO-1-PHENYLBUTAN-2-YL)-6-CHLORO-2-FLUORO-3-METHYLBENZAMIDE] |
| 3000 to 10000 | < 3000 | 3000 to 10000 | 10 to 25 | > 25 | O=CC(Cc1ccccc1)NC(=O)c1cccc2c1oc1ccccc12 (stereo not drawn) [Compound 46, N-(1-OXO-3-PHENYLPROPAN-2-YL)DIBENZO[b,a]FURAN-4-CARBOXAMIDE] |

| SMILES | IC50 (Human Calpain 1/NS1) [nM] | IC50 (Human Calpain 2/NS1) [nM] | IC50 (Human Calpain 9/NS1) [nM] | IC50 [1] [µM] | IC50 [2] [µM] |
| --- | --- | --- | --- | --- | --- |
| Cn1c2ccccc2c2cccc(C(=O)NC(Cc3ccccc3)C(=O)C(N)=O)c21 (stereo not drawn) [Compound 12] | < 3000 | < 3000 | < 3000 | > 25 | < 10 |
